Where two headings read alike, the source gives them in different places.
Key:
Type in all cases: in vivo
Reticulitermes flavipes [1] = conditions: 10 ppmai; 2 DA-A
Coptotermes formosanus = conditions: for INSECT ACTIVIIS 0-4: scale 0 death, 4 normal behaviour; for % Mortality: 0.15 % v/v on ground Sabal palm
Experimental: (§1) Bioassay tubes were loaded with 0.2 g of finely ground Sabal palm materials into microtubes. One mL of dilute active ingredient (described below) was applied to the tube and fully absorbed by the palm materials. The tubes were placed in petri dishes on a 3 mm sand base. Thirty to forty workers and soldiers from the field-collected Reticulitermes and Coptotermes colonies were introduced to the petri dishes. Termite activity was evaluated on a 0-4 scale, with 0 denoting death and 4 indicating normal behaviour. Mortality was recorded weekly for up to 9 weeks, depending on survivorship.

Reticulitermes flavipes [2] = conditions: for INSECT ACTIVIIS 0-4: scale 0 death, 4 normal behaviour; for % Mortality: 0.15 % v/v on ground Sabal palm
Experimental: as §1

[3] = 7.5 ppmai on ground Sabal palm, 5 DA-A
[4] = 75 ppmai on ground Sabal palm, 5 DA-A
[5] = 150 ppmai on ground Sabal palm, 5 DA-A
[6] = 300 ppmai on ground Sabal palm, 5 DA-A

CNC(=O)c1cc(Cl)cc(C)c1NC(=O)c1cc(Br)nn1-c1ncccc1Cl [Chlorantraniliprole]
TUNNEL LENGTH (Reticulitermes flavipes [1]): 4 CM
TUNNEL LENGTH (Coptotermes formosanus; 1 ppmai, 2 DA-A): 4 CM
INSECT ACTIVIIS 0-4 (Coptotermes formosanus; 1 ppmai, 2 DA-A): 3.3 0-4
INSECT % MORTAL (Coptotermes formosanus; 1 ppmai, 7 DA-A): 5.4%
INSECT ACTIVIIS 0-4 (Coptotermes formosanus; 1 ppmai, 7 DA-A): 3.8 0-4
INSECT % MORTAL (Coptotermes formosanus; 1 ppmai, 9 DA-A): 2.3%
INSECT % MORTAL (Coptotermes formosanus; 1 ppmai, 20 DA-A): 93.4%
INSECT ACTIVIIS 0-4 (Coptotermes formosanus; 1 ppmai, 20 DA-A): 0.5 0-4
TUNNEL LENGTH (Coptotermes formosanus; 10 ppmai, 2 DA-A): 4 CM
INSECT ACTIVIIS 0-4 (Coptotermes formosanus; 10 ppmai, 2 DA-A): 4 0-4
INSECT % MORTAL (Coptotermes formosanus; 10 ppmai, 7 DA-A): 1.3%
INSECT ACTIVIIS 0-4 (Coptotermes formosanus; 10 ppmai, 7 DA-A): 3.3 0-4
INSECT % MORTAL (Coptotermes formosanus; 10 ppmai, 9 DA-A): 1.5%
INSECT % MORTAL (Coptotermes formosanus; 10 ppmai, 20 DA-A): 91.1%
INSECT ACTIVIIS 0-4 (Coptotermes formosanus; 10 ppmai, 20 DA-A): 0.8 0-4
TUNNEL LENGTH (Coptotermes formosanus; 50 ppmai, 2 DA-A): 1 CM
INSECT ACTIVIIS 0-4 (Coptotermes formosanus; 50 ppmai, 2 DA-A): 1.5 0-4
INSECT % MORTAL (Coptotermes formosanus; 50 ppmai, 7 DA-A): 23.2%
INSECT ACTIVIIS 0-4 (Coptotermes formosanus; 50 ppmai, 7 DA-A): 1 0-4
INSECT % MORTAL (Coptotermes formosanus; 50 ppmai, 9 DA-A): 90.8%
INSECT % MORTAL (Coptotermes formosanus; 50 ppmai, 20 DA-A): 100%
INSECT ACTIVIIS 0-4 (Coptotermes formosanus; 50 ppmai, 20 DA-A): 0 0-4
TUNNEL LENGTH (Coptotermes formosanus; 100 ppmai, 2 DA-A): 1.5 CM
INSECT ACTIVIIS 0-4 (Coptotermes formosanus; 100 ppmai, 2 DA-A): 1 0-4
INSECT % MORTAL (Coptotermes formosanus; 100 ppmai, 7 DA-A): 60.5%
INSECT ACTIVIIS 0-4 (Coptotermes formosanus; 100 ppmai, 7 DA-A): 1 0-4
INSECT % MORTAL (Coptotermes formosanus; 100 ppmai, 9 DA-A): 98.3%
INSECT % MORTAL (Coptotermes formosanus; 100 ppmai, 20 DA-A): 100%
INSECT ACTIVIIS 0-4 (Coptotermes formosanus; 100 ppmai, 20 DA-A): 0 0-4
TUNNEL LENGTH (Reticulitermes flavipes [2]; 1 ppmai, 2 DA-A): 4 CM
INSECT ACTIVIIS 0-4 (Reticulitermes flavipes [2]; 1 ppmai, 2 DA-A): 4 0-4
INSECT % MORTAL (Reticulitermes flavipes [2]; 1 ppmai, 7 DA-A): 0.8%
INSECT ACTIVIIS 0-4 (Reticulitermes flavipes [2]; 1 ppmai, 7 DA-A): 4 0-4
INSECT % MORTAL (Reticulitermes flavipes [2]; 1 ppmai, 9 DA-A): 2.4%
INSECT % MORTAL (Reticulitermes flavipes [2]; 1 ppmai, 20 DA-A): 4.1%
INSECT ACTIVIIS 0-4 (Reticulitermes flavipes [2]; 1 ppmai, 20 DA-A): 4 0-4
INSECT ACTIVIIS 0-4 (Reticulitermes flavipes [2]; 10 ppmai, 2 DA-A): 3.3 0-4
INSECT % MORTAL (Reticulitermes flavipes [2]; 10 ppmai, 7 DA-A): 0.2%
INSECT ACTIVIIS 0-4 (Reticulitermes flavipes [2]; 10 ppmai, 7 DA-A): 4 0-4
INSECT % MORTAL (Reticulitermes flavipes [2]; 10 ppmai, 9 DA-A): 0.5%
INSECT % MORTAL (Reticulitermes flavipes [2]; 10 ppmai, 20 DA-A): 4.92%
INSECT ACTIVIIS 0-4 (Reticulitermes flavipes [2]; 10 ppmai, 20 DA-A): 4 0-4
TUNNEL LENGTH (Reticulitermes flavipes [2]; 50 ppmai, 2 DA-A): 2 CM
INSECT ACTIVIIS 0-4 (Reticulitermes flavipes [2]; 50 ppmai, 2 DA-A): 2.3 0-4
INSECT % MORTAL (Reticulitermes flavipes [2]; 50 ppmai, 7 DA-A): 13%
INSECT ACTIVIIS 0-4 (Reticulitermes flavipes [2]; 50 ppmai, 7 DA-A): 2 0-4
INSECT % MORTAL (Reticulitermes flavipes [2]; 50 ppmai, 9 DA-A): 94.7%
INSECT % MORTAL (Reticulitermes flavipes [2]; 50 ppmai, 20 DA-A): 100%
INSECT ACTIVIIS 0-4 (Reticulitermes flavipes [2]; 50 ppmai, 20 DA-A): 0 0-4
TUNNEL LENGTH (Reticulitermes flavipes [2]; 100 ppmai, 2 DA-A): 1 CM
INSECT ACTIVIIS 0-4 (Reticulitermes flavipes [2]; 100 ppmai, 2 DA-A): 1.3 0-4
INSECT % MORTAL (Reticulitermes flavipes [2]; 100 ppmai, 7 DA-A): 15%
INSECT ACTIVIIS 0-4 (Reticulitermes flavipes [2]; 100 ppmai, 7 DA-A): 1 0-4
INSECT % MORTAL (Reticulitermes flavipes [2]; 100 ppmai, 9 DA-A): 100%
INSECT % MORTAL (Reticulitermes flavipes [2]; 100 ppmai, 20 DA-A): 100%
INSECT ACTIVIIS 0-4 (Reticulitermes flavipes [2]; 100 ppmai, 20 DA-A): 0 0-4

CNC(=O)c1cc(C#N)cc(C)c1NC(=O)c1cc(Br)nn1-c1ncccc1Cl [Cyantraniliprole]
% MORT (Coptotermes formosanus; 5 ppmai on ground Sabal palm, 5 DA-A): 0.5%
% MORT (Coptotermes formosanus; 5 ppmai on ground Sabal palm, 11 DA-A): 1.2%
% MORT (Coptotermes formosanus; 5 ppmai on ground Sabal palm, 19 DA-A): 1.2%
% MORT (Coptotermes formosanus; 5 ppmai on ground Sabal palm, 37 DA-A): 1.2%
% MORT (Coptotermes formosanus; 50 ppmai on ground Sabal palm, 5 DA-A): 3.9%
% MORT (Coptotermes formosanus; 50 ppmai on ground Sabal palm, 11 DA-A): 100%
% MORT (Coptotermes formosanus; 50 ppmai on ground Sabal palm, 19 DA-A): 100%
% MORT (Coptotermes formosanus; 50 ppmai on ground Sabal palm, 37 DA-A): 100%
% MORT (Coptotermes formosanus; 100 ppmai on ground Sabal palm, 5 DA-A): 49.3%
% MORT (Coptotermes formosanus; 100 ppmai on ground Sabal palm, 11 DA-A): 100%
% MORT (Coptotermes formosanus; 100 ppmai on ground Sabal palm, 19 DA-A): 100%
% MORT (Coptotermes formosanus; 100 ppmai on ground Sabal palm, 37 DA-A): 100%
% MORT (Coptotermes formosanus; 200 ppmai on ground Sabal palm, 5 DA-A): 80.1%
% MORT (Coptotermes formosanus; 200 ppmai on ground Sabal palm, 11 DA-A): 100%
% MORT (Coptotermes formosanus; 200 ppmai on ground Sabal palm, 19 DA-A): 100%
% MORT (Coptotermes formosanus; 200 ppmai on ground Sabal palm, 37 DA-A): 100%

COC(=O)N(C(=O)N1CO[C@@]2(C(=O)OC)Cc3cc(Cl)ccc3C2=N1)c1ccc(OC(F)(F)F)cc1 [Indoxacarb]
% MORT (Coptotermes formosanus; [3]): 0%
% MORT (Coptotermes formosanus; 7.5 ppmai on ground Sabal palm, 7 DA-A): 0%
% MORT (Coptotermes formosanus; 7.5 ppmai on ground Sabal palm, 12 DA-A): 0%
% MORT (Coptotermes formosanus; 7.5 ppmai on ground Sabal palm, 20 DA-A): 2.5%
% MORT (Coptotermes formosanus; 7.5 ppmai on ground Sabal palm, 28 DA-A): 5%
% MORT (Coptotermes formosanus; 7.5 ppmai on ground Sabal palm, 42 DA-A): 90%
% MORT (Coptotermes formosanus; [4]): 0.013%
% MORT (Coptotermes formosanus; 75 ppmai on ground Sabal palm, 7 DA-A): 0.038%
% MORT (Coptotermes formosanus; 75 ppmai on ground Sabal palm, 12 DA-A): 11.68%
% MORT (Coptotermes formosanus; 75 ppmai on ground Sabal palm, 20 DA-A): 35%
% MORT (Coptotermes formosanus; 75 ppmai on ground Sabal palm, 28 DA-A): 93.8%
% MORT (Coptotermes formosanus; 75 ppmai on ground Sabal palm, 42 DA-A): 100%
% MORT (Coptotermes formosanus; [5]): 0%
% MORT (Coptotermes formosanus; 150 ppmai on ground Sabal palm, 7 DA-A): 0.013%
% MORT (Coptotermes formosanus; 150 ppmai on ground Sabal palm, 12 DA-A): 17.48%
% MORT (Coptotermes formosanus; 150 ppmai on ground Sabal palm, 20 DA-A): 37.5%
% MORT (Coptotermes formosanus; 150 ppmai on ground Sabal palm, 28 DA-A): 98.8%
% MORT (Coptotermes formosanus; 150 ppmai on ground Sabal palm, 42 DA-A): 100%
% MORT (Coptotermes formosanus; [6]): 0%
% MORT (Coptotermes formosanus; 300 ppmai on ground Sabal palm, 7 DA-A): 0%
% MORT (Coptotermes formosanus; 300 ppmai on ground Sabal palm, 12 DA-A): 17.5%
% MORT (Coptotermes formosanus; 300 ppmai on ground Sabal palm, 20 DA-A): 93.8%
% MORT (Coptotermes formosanus; 300 ppmai on ground Sabal palm, 28 DA-A): 100%
% MORT (Coptotermes formosanus; 300 ppmai on ground Sabal palm, 42 DA-A): 100%
% MORT (Reticulitermes flavipes [2]; 7.5 ppmai on ground Sabal palm, 3 DA-A): 9.66%
% MORT (Reticulitermes flavipes [2]; [3]): 56.71%
% MORT (Reticulitermes flavipes [2]; 7.5 ppmai on ground Sabal palm, 10 DA-A): 99.79%
% MORT (Reticulitermes flavipes [2]; 75 ppmai on ground Sabal palm, 3 DA-A): 16.59%
% MORT (Reticulitermes flavipes [2]; [4]): 87.91%
% MORT (Reticulitermes flavipes [2]; 75 ppmai on ground Sabal palm, 10 DA-A): 100%
% MORT (Reticulitermes flavipes [2]; 150 ppmai on ground Sabal palm, 3 DA-A): 22.94%
% MORT (Reticulitermes flavipes [2]; [5]): 87.84%
% MORT (Reticulitermes flavipes [2]; 150 ppmai on ground Sabal palm, 10 DA-A): 100%
% MORT (Reticulitermes flavipes [2]; 300 ppmai on ground Sabal palm, 3 DA-A): 47.09%
% MORT (Reticulitermes flavipes [2]; [6]): 98.42%
% MORT (Reticulitermes flavipes [2]; 300 ppmai on ground Sabal palm, 10 DA-A): 100%

O=C(NC(=O)c1c(F)cccc1F)Nc1cc(Cl)c(OC(F)(F)C(F)C(F)(F)F)cc1Cl (stereo not shown) [Lufenuron]
% Mortality (Coptotermes formosanus; 4 DA-A): 4.38%
% Mortality (Coptotermes formosanus; 7 DA-A): 7.5%
% Mortality (Coptotermes formosanus; 11 DA-A): 14.38%
% Mortality (Coptotermes formosanus; 18 DA-A): 21.25%
% Mortality (Coptotermes formosanus; 25 DA-A): 45%
% Mortality (Coptotermes formosanus; 32 DA-A): 93.8%
% Mortality (Coptotermes formosanus; 41 DA-A): 100%
% Mortality (Reticulitermes flavipes [2]; 4 DA-A): 11.25%
% Mortality (Reticulitermes flavipes [2]; 7 DA-A): 50%
% Mortality (Reticulitermes flavipes [2]; 11 DA-A): 51.25%
% Mortality (Reticulitermes flavipes [2]; 18 DA-A): 51.25%
% Mortality (Reticulitermes flavipes [2]; 25 DA-A): 51.88%
% Mortality (Reticulitermes flavipes [2]; 32 DA-A): 68.75%
% Mortality (Reticulitermes flavipes [2]; 41 DA-A): 70.63%
% Mortality (Reticulitermes flavipes [2]; 53 DA-A): 86.25%
% Mortality (Reticulitermes flavipes [2]; 63 DA-A): 96.25%

From US11122789B2, “Termite preferred resource compositions and methods” (priority 2015, dated 2021)
